Test results: publication PMC10613275 (Scientific Reports, 2023)
Where two headings read alike, the source gives them in different places. Marks after values point to notes of the source that are not given here.

System: CHO-K1 cells
Assay type: cell-based, Chinese hamster
Conditions: for MoA (mean fluorescence values over area of the nuclei): lilial 100 µM, PC 30 μM
Protocol: Briefly, HeLa and CHO-K1 cells were seeded at a concentration of 1 × 10^5 cells/ml into the 96-well plates. CHO-K1 cells were used for comparison with HPRT test. HeLa cells were recommended by the manufacturer of the kit. After 24 h, cells were rinsed with PBS and cultivation medium (“Cell lines” Section) without ATB, with a reduced content of FBS (5%) was added. 30 µM valinomycin (in DMSO) was used as a positive control Samples were applied in the presence of non-toxic sample concentrations, i.e. 100 µM either with or without S9 mix. […] Cells were photographed using a fluorescence microscope (Olympus IX83); filters: DAPI (500 ms) and Cy3 (500 ms). Bioimage analysis in ImageJ software was performed as described previously.

CC(C=O)Cc1ccc(C(C)(C)C)cc1 (stereo not shown) [Lilial, 3-(4-(tert-butyl)phenyl)-2-methylpropanal]
Genotoxicity result (CHO-K1, 100 µM): Inconclusive
MoA (mean fluorescence values over area of the nuclei) (CHO-K1, 4h_S9): 1.10*
MoA (mean fluorescence values over area of the nuclei) (CHO-K1, 4 h, without S9): 0.52
MoA (mean fluorescence values over area of the nuclei) (CHO-K1, 24 h): 0.99
